Series [1] has as its system WIL-FL F98D. The following applies: Figure S5.
Series [2] has as its system WIL-FL F98D. The following applies: cited from earlier work.
Series [3] addresses WIL-FL* (fluorescein-labeled WIL-FL LC dimer) (Homo sapiens, UniProt P01721, form not given/K101C). As to the kind of experiment: Proteolysis-coupled fluorescence polarization. The series is classed as biochemical. The following applies: for potency (EC50) increase compared to 1: WIL-FL* EC50 ratio to compound 1. For orientation: In fluorescence polarisation assays a small probe gives low polarisation when free and higher when bound to something large.

A further series concerns plasma proteins. The series is classed as in vitro ADME, human or mouse. The following applies: 2 μM in plasma, dialysis 4 h, 37 °C.
For another series, the target named is WIL-FL* T46L/F49Y (Homo sapiens, UniProt P01721, form not given/K101C/T66L). The following applies: WIL-FL T46L/F49Y EC50.
Series [4] deals with WIL-FL* (fluorescein-labeled WIL-FL LC dimer). The series is described as follows: Proteolysis-coupled fluorescence polarization. The series is classed as biochemical, human. The following applies: assay not given; data in Tables S2-S6 of the supplement.
Chain of WIL-FL* (fluorescein-labeled WIL-FL LC dimer) (P01721 20-117 K101C, form open): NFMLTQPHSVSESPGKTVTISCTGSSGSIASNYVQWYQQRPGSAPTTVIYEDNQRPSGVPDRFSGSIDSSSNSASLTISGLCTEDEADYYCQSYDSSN

Chain of WIL-FL* (fluorescein-labeled WIL-FL LC dimer) (Homo sapiens, UniProt P01721, form not given/K101C) (P01721 20-117 K101C, form open): as above
Chain of WIL-FL* T46L/F49Y (P01721 20-117 T66L/K101C, form open): as the sequence (P01721 20-117 K101C, form open) above, with T47L counted along it

For the compound `Cc1c(CCN2CC3(CCN(c4nccn5ccnc45)CC3)NC2=O)c(=O)oc2cc(O[C@H](C)c3ccccc3)ccc12` [(R)-83, (R)-8-(imidazo[1,2-a]pyrazin-8-yl)-3-(2-(4-methyl-2-oxo-7-(1-phenylethoxy)-2H-chromen-3-yl)ethyl)-1,3,8-triazaspiro[4.5]decan-2-one], the “proteinase K resistance provided to WIL-FL F98D” value in the series with WIL-FL F98D [1] is “no appreciable proteinase K resistance”.

For `CCN(CC)c1ccc2c(C)cc(=O)oc2c1` [Compound 1], the “binding to LC with F98D mutation” value in the series on WIL-FL F98D [2] is on record as “obviates binding”.

On to `CCN(CC)c1ccc2c(C)c(CCOC(=O)NCC3CCCNC3)c(=O)oc2c1` (centres unmarked) [Compound 18, 2-(7-(diethylamino)-4-methyl-2-oxo-2H-chromen-3-yl)ethyl (piperidin-3-ylmethyl)carbamate], for which the “potency (EC50) increase compared to 1” value in series [3] was no more than 8 fold.

Regarding `CCN(CC)c1ccc2c(C)c(CCOC(=O)NCc3cccnc3)c(=O)oc2c1` [Compound 20, 2-(7-(diethylamino)-4-methyl-2-oxo-2H-chromen-3-yl)ethyl (pyridin-3-ylmethyl)carbamate], in series [3], the “potency (EC50) increase compared to 1” value is reported as no more than 8 fold.

Consider `CCN(CC)c1ccc2c(C)c(CCOC(=O)NCCc3cccnc3)c(=O)oc2c1` [Compound 21, 2-(7-(diethylamino)-4-methyl-2-oxo-2H-chromen-3-yl)ethyl (2-(pyridin-3-yl)ethyl)carbamate], for which the “potency (EC50) increase compared to 1” value in series [3] was no more than 8 fold.

For the compound `CCN(CC)c1ccc2c(C)c(CCOC(=O)N(C)CCc3cccnc3)c(=O)oc2c1` [Compound 22, 2-(7-(diethylamino)-4-methyl-2-oxo-2H-chromen-3-yl)ethyl methyl(2-(pyridin-3-yl)ethyl)carbamate], in series [3] (WIL-FL* EC50), the “reduced potency compared to the secondary carbamate 21” value is reported as 70 fold.

Take `CCN(CC)c1ccc2c(C)c(CCOC(=O)NCc3cccc(NC(C)=O)c3)c(=O)oc2c1` [Compound 23, 2-(7-(diethylamino)-4-methyl-2-oxo-2H-chromen-3-yl)ethyl (3-acetamidobenzyl)carbamate]: in series [3], the “potency (EC50) increase compared to 1” value is “up to 22 fold”.

For the compound `CCN(CC)c1ccc2c(C)c(CCOC(=O)NCc3cccc(C(N)=O)c3)c(=O)oc2c1` [Compound 25, 2-(7-(diethylamino)-4-methyl-2-oxo-2H-chromen-3-yl)ethyl (3-carbamoylbenzyl)carbamate], the “potency (EC50) increase compared to 1” value in series [3] is recorded as “up to 22 fold”.

On to `CCN(CC)c1ccc2c(C)c(CCOC(=O)NCc3cccc(-c4c[nH]cn4)c3)c(=O)oc2c1` [Compound 26, 2-(7-(diethylamino)-4-methyl-2-oxo-2H-chromen-3-yl)ethyl (3-(1H-imidazol-4-yl)benzyl)carbamate], for which the “potency (EC50) increase compared to 1” value in series [3] turned out to be 42 fold.

On to `CCN(CC)c1ccc2c(C)c(CCOC(=O)NCc3cccc(-c4ccc[nH]c4=O)c3)c(=O)oc2c1` [Compound 27, 2-(7-(diethylamino)-4-methyl-2-oxo-2H-chromen-3-yl)ethyl (3-(2-oxo-1,2-dihydropyridin-3-yl)benzyl)carbamate], for which the “proteinase K resistance provided to WIL-FL F98D” value with WIL-FL F98D [1] was “no appreciable proteinase K resistance”.

For the compound `Cc1cc(=O)oc2cc(OCC(C)c3ccccc3)ccc12` (centres unmarked) [Compound 57, 4-methyl-7-(2-phenylpropoxy)-2H-chromen-2-one], in the series on plasma proteins, the “plasma protein binding (in words)” value is “very high plasma protein binding”. Moreover, the “potency increase relative to 2” value on WIL-FL* T46L/F49Y came out at 9 fold.

As to `Cc1c(CN2CCOCC2)c(=O)oc2cc(OC(C)c3ccccc3)ccc12` (centres unmarked) [Compound 62, 4-methyl-3-(morpholinomethyl)-7-(1-phenylethoxy)-2H-chromen-2-one], the “stabilizer potency (qualitative statement in text)” value in series [4] is “slightly increased their potency”.

For the compound `Cc1c(CN2CCOCC2)c(=O)oc2cc(OCC(C)c3ccccc3)ccc12` (centres unmarked) [Compound 63, 4-methyl-3-(morpholinomethyl)-7-(2-phenylpropoxy)-2H-chromen-2-one], the “stabilizer potency (qualitative statement in text)” value in series [4] is recorded as “slightly increased their potency”.

The values above are taken from article PMC8428256 (Journal of medicinal chemistry, 2021).
